Drawing on PubChem BioAssay AID1259408 (Genetic Toxicology Data Bank (GENE-TOX), 2018), this text covers mutagenic call and call for 20 compounds.

SMILES strings stand for the structures. The source made the active and inactive calls. How the calls were made is not given here.

This data set concerns GENE-TOX genotoxicity assays, various organisms and cells. Description: GENE-TOX mutagenicity studies. To be noted: for call: Assay Type: In vivo carcinogenicity studies.
Setting [1] is: Species/Cell Type: Salmonella typhimurium (one or more of the five standard strains: TA98, TA100, TA1535, TA1537, and TA1538), Assay Type: Histidine reverse gene mutation, Ames assay, Assay Code: SAL+, Evaluation Type: Evaluation A (Pre-1980).
The mark [2] stands for this setting: Species/Cell Type: Salmonella typhimurium (one or more of the five standard strains: TA98, TA100, TA1535, TA1537, and TA1538), Assay Type: Histidine reverse gene mutation, Ames assay, Assay Code: SAL+*, Activation: With metabolic activation, Evaluation Type: Evaluation A (Pre-1980).
Where [3] appears, read: Species/Cell Type: Nonhuman, Assay Type: Sister-chromatid exchange (SCE) in vitro, Assay Code: SC2+, Evaluation Type: Evaluation B (Post-1980).
Where [4] appears, read: Species/Cell Type: Syrian hamster embryo (SHE) cells, Assay Type: Cell transformation, clonal assay, Assay Code: CTC+, Evaluation Type: Evaluation A (Pre-1980).
The mark [5] stands for this setting: Species/Cell Type: Salmonella typhimurium (one or more of the five standard strains: TA98, TA100, TA1535, TA1537, and TA1538), Assay Type: Histidine reverse gene mutation, Ames assay, Assay Code: SALT, Evaluation Type: Evaluation A (Pre-1980).
[6] abbreviates: Species/Cell Type: Drosophila melanogaster, Assay Type: Sex-linked recessive lethal gene mutation, Assay Code: SRL+, Evaluation Type: Evaluation A (Pre-1980).
Setting [7] is: Species/Cell Type: Nonhuman, Assay Code: CCG+L, Evaluation Type: Evaluation A (Pre-1980).
Where [8] appears, read: Species/Cell Type: Drosophila melanogaster, Assay Type: Sex-linked recessive lethal gene mutation, Assay Code: SRLT, Evaluation Type: Evaluation A (Pre-1980).

On to `Cc1cc(Cl)ccc1OCCCC(=O)O`, for which the mutagenic call was “inactive; negative” (Species/Cell Type: Drosophila melanogaster, Assay Type: Sex-linked recessive lethal gene mutation, Assay Code: SRL-, Evaluation Type: Evaluation A (Pre-1980)); “inactive; negative” (Species/Cell Type: Salmonella typhimurium, Serratia marcesens, Assay Type: Forward and reverse gene mutation, host-mediated assay, Assay Code: HM2-, Evaluation Type: Evaluation A (Pre-1980)).
Turning to `Nc1ccccc1Cl`, the mutagenic call reads like this: (Species/Cell Type: Escherichia coli polA (W3119 vs P3478), Assay Type: Rec-assay, DNA effects (bacterial DNA repair), Assay Code: RE1+, Evaluation Type: Evaluation A (Pre-1980)) “active; positive”; (Species/Cell Type: Mouse, Sex: Male, Assay Type: Sperm morphology, Assay Code: SPI-, Evaluation Type: Evaluation A (Pre-1980)) “inactive; negative”; (Species/Cell Type: Saccharomyces cerevisiae, Assay Type: Mitotic recombination or gene conversion, Assay Code: YEH-, Evaluation Type: Evaluation A (Pre-1980)) “inactive; negative”; (Species/Cell Type: Syrian hamster embryo (SHE) cells, Assay Type: Cell transformation, clonal assay, Assay Code: CTC-, Evaluation Type: Evaluation A (Pre-1980)) “inactive; negative”.
Take `CNC(=O)Oc1cc(C)cc(C)c1`: the mutagenic call by setting is: (Species/Cell Type: Bacillus subtilis (H17 vs M45T), Assay Type: Rec-assay, spot test, DNA effects (bacterial DNA repair), Assay Code: REX-, Evaluation Type: Evaluation A (Pre-1980)) “inactive; negative”; (Species/Cell Type: Escherichia coli WP2, Assay Type: Tryptophan reverse gene mutation, Assay Code: WP2-, Evaluation Type: Evaluation A (Pre-1980)) “inactive; negative”.
For the compound `Cc1cc2nc3cc(C)c(N)cc3[n+](-c3ccccc3)c2cc1N`, where the note is “Species/Cell Type: Bacillus subtilis (H17 vs M45), Assay Type: Rec-assay, spot test, DNA effects (bacterial DNA repair), Assay Code: REWT, Evaluation Type: Evaluation A (Pre-1980)”, the mutagenic call was “no conclusion”.
As for `Cc1c2cc[n+](C)cc2c(C)c2c1[nH]c1ccc(O)cc12`, the mutagenic call (Species/Cell Type: Chinese hamster ovary (CHO) cells, Assay Type: Forward gene mutation at the HPRT locus, Assay Code: CHO+, Evaluation Type: Evaluation B (Post-1980)) is “active; positive”.
As for `Nc1nc(-c2ccc([N+](=O)[O-])s2)cs1`, the mutagenic call under setting [1] is “active; positive”.
Take `Cc1ccc(N=Nc2c(O)ccc3ccccc23)c(C)c1`: the mutagenic call (Species/Cell Type: Bacillus subtilis (H17 vs M45T), Assay Type: Rec-assay, spot test, DNA effects (bacterial DNA repair), Assay Code: REXT, Evaluation Type: Evaluation A (Pre-1980)) is “no conclusion” and the mutagenic call under setting [2] is “active; positive”.
Turning to `O=[As](O)(O)O`, the mutagenic call (Species/Cell Type: Bacillus subtilis (H17 vs M45), Assay Type: Rec-assay, spot test, DNA effects (bacterial DNA repair), Assay Code: REW+, Evaluation Type: Evaluation A (Pre-1980)) was “active; positive”; the mutagenic call (Species/Cell Type: Human lymphocytes, Assay Type: Sister-chromatid exchange (SCE) in vitro, Assay Code: SCL+, Evaluation Type: Evaluation B (Post-1980)) was “active; positive”; the mutagenic call (Species/Cell Type: Human, Assay Type: Sister-chromatid exchange (SCE) in vitro, Assay Code: SC1+, Evaluation Type: Evaluation B (Post-1980)) was “active; positive”; the mutagenic call under setting [3] was “active; positive”; the mutagenic call under setting [4] is “active; positive”.
On to `c1ccc2cnccc2c1`, for which the mutagenic call under setting [5] is listed as “no conclusion”.
As for `Oc1cccc(O)c1`, the mutagenic call was “active; positive” (Species/Cell Type: Allium cepa, Assay Type: Chromosome aberrations, Assay Code: ALC+, Evaluation Type: Evaluation A (Pre-1980)); “inactive; negative” (Species/Cell Type: Human lymphocytes, Assay Type: Sister-chromatid exchange (SCE) in vitro, Assay Code: SCL-, Evaluation Type: Evaluation B (Post-1980)); “inactive; negative” (Species/Cell Type: Human, Assay Type: Sister-chromatid exchange (SCE) in vitro, Assay Code: SC1-, Evaluation Type: Evaluation B (Post-1980)); “no conclusion” (Species/Cell Type: Mammalian polychromatic erythrocytes, Assay Type: Micronucleus test, chromosome aberrations, Assay Code: MNTT, Evaluation Type: Evaluation A (Pre-1980)); “inactive; negative” (Species/Cell Type: Neurospora crassa, Assay Type: Aneuploidy, chromosome aberrations, Assay Code: NEN-, Evaluation Type: Evaluation A (Pre-1980)); “no conclusion” (Species/Cell Type: Nonhuman, Assay Type: Sister-chromatid exchange (SCE) in vitro, Assay Code: SC2T, Evaluation Type: Evaluation B (Post-1980)). For the same compound, the mutagenic call is “inactive; negative” (Species/Cell Type: Nonhuman, Assay Type: Sister-chromatid exchange (SCE) in vivo, Assay Code: SC3-, Evaluation Type: Evaluation B (Post-1980)); “inactive; negative” (Species/Cell Type: Salmonella typhimurium (one or more of the five standard strains: TA98, TA100, TA1535, TA1537, and TA1538), Assay Type: Histidine reverse gene mutation, Ames assay, Assay Code: SAL-, Evaluation Type: Evaluation A (Pre-1980)).
Consider `c1ccc2c(c1)-c1cc3ccccc3cc1[C@H]1O[C@@H]21`, for which the mutagenic call was “active; positive” (Species/Cell Type: Chinese hamster lung (V79) cells, Assay Type: Forward gene mutation at the HPRT or ouabain locus, Assay Code: V79+, Evaluation Type: Evaluation A (Pre-1980)); “active; positive” under setting [6]; “active; positive” (Species/Cell Type: Human diploid fibroblasts, Assay Type: Unscheduled DNA synthesis (UDS) in vitro, DNA effects, Assay Code: UDH+D, Dose Response: With dose response, Evaluation Type: Evaluation A (Pre-1980)); “active; positive” (Species/Cell Type: Mouse prostate cells, Assay Type: Cell transformation, Assay Code: CTM+, Evaluation Type: Evaluation A (Pre-1980)); “active; positive” under setting [3]; “active; positive” under setting [1]. In addition, the mutagenic call under setting [4] is “active; positive”. In addition, the call under setting [7] was “active; positive”.
Take `O=NN1CCC(Cl)CC1`: the mutagenic call by setting is: under setting [6], “active; positive”; under setting [2], “active; positive”.
In the case of `COc1nn(CSP(=S)(OC)OC)c(=O)s1`, the mutagenic call (Species/Cell Type: Nonhuman, Assay Type: Sister-chromatid exchange (SCE) in vitro, Assay Code: SC2+D*, Activation: With metabolic activation, Dose Response: With dose response, Evaluation Type: Evaluation B (Post-1980)) was “active; positive”.
`CN(OC(=O)c1ccccc1)c1ccc(N=Nc2ccccc2)cc1`: the mutagenic call under setting [8] was “no conclusion”.
In the case of `ClC1=C(Cl)C2(Cl)C3C(Cl)C=CC3C1(Cl)C2(Cl)Cl` (stereo not given), the mutagenic call is “no conclusion” under setting [8] and “active; positive” (Species/Cell Type: Zea mays (corn), Assay Type: Gene mutation, Assay Code: ZEM+, Evaluation Type: Evaluation A (Pre-1980)). Also, the call under setting [7] was “active; positive”.
For `O[C@@H]1[C@H](O)[C@@H](O)c2cc3ccc4cccc5ccc(c2[C@@H]1O)c3c45`, where the note is “Species/Cell Type: Chinese hamster lung (V79) cells, Assay Type: Forward gene mutation at the HPRT or ouabain locus, Assay Code: V79-*, Activation: With metabolic activation, Evaluation Type: Evaluation A (Pre-1980)”, the mutagenic call is “inactive; negative”.
For `CS(=O)(=O)OC/C=C/COS(C)(=O)=O`, the mutagenic call under setting [6] is “active; positive”.
`O=c1cc[nH]c(=S)[nH]1`: the mutagenic call under setting [8] is listed as “no conclusion”.
`CSc1ccc([C@H](O)[C@H](CO)NC(=O)C(Cl)Cl)cc1`: the mutagenic call under setting [5] is recorded as “no conclusion”.
As for `O=C1OC(CN2CCOCC2)CN1/N=C/c1ccc([N+](=O)[O-])o1` (stereo not given), the mutagenic call is “active; positive” (Species/Cell Type: Escherichia coli WP2, Assay Type: Tryptophan reverse gene mutation, Assay Code: WP2+, Evaluation Type: Evaluation A (Pre-1980)); “active; positive” (Species/Cell Type: Escherichia coli WP2 UVRA, Assay Type: Tryptophan reverse gene mutation, Assay Code: WPU+, Evaluation Type: Evaluation A (Pre-1980)); “active; positive” (Species/Cell Type: Escherichia coli WP2 UVRA, Assay Type: Tryptophan reverse gene mutation, Assay Code: WPU+D, Dose Response: With dose response, Evaluation Type: Evaluation A (Pre-1980)). The call (Species/Cell Type: Nonhuman, Assay Code: CCG+, Evaluation Type: Evaluation A (Pre-1980)) was “active; positive”.
